A word on the pEC50: it is −log10 of the EC50, conventionally taken in molar units. A lower pEC50 goes with a large EC50.

pEC50: −log10 of the molar value.

In the experiment the target is T1, hNLRP3 (Homo sapiens, UniProt Q96P20).
T1 construct: THP-1 cells were purchased from the American Type Culture Collection; host or cells: THP-1 cells, PMA-differentiated
The experiment can be described thus: Measurement of IL-1β production in PMA-differentiated THP-1 cells (hNLRP3 agonist; ELISA, alternative and hTRF procedures). Format: cell-based. The method, boiled down:
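Supernatant IL-1β was quantified by ELISA in two procedures and by hTRF (kit antibodies at 1:40) in a third. THP-1 cells were first differentiated with PMA ([…] for 24 h; 20 μg/ml overnight; 50 ng/ml overnight), then incubated in 2% FBS RPMI with compounds for 4 h, 2 h and 2 h, respectively, at 1% DMSO or a 10 μM top concentration.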

T1 sequence (Q96P20 whole entry): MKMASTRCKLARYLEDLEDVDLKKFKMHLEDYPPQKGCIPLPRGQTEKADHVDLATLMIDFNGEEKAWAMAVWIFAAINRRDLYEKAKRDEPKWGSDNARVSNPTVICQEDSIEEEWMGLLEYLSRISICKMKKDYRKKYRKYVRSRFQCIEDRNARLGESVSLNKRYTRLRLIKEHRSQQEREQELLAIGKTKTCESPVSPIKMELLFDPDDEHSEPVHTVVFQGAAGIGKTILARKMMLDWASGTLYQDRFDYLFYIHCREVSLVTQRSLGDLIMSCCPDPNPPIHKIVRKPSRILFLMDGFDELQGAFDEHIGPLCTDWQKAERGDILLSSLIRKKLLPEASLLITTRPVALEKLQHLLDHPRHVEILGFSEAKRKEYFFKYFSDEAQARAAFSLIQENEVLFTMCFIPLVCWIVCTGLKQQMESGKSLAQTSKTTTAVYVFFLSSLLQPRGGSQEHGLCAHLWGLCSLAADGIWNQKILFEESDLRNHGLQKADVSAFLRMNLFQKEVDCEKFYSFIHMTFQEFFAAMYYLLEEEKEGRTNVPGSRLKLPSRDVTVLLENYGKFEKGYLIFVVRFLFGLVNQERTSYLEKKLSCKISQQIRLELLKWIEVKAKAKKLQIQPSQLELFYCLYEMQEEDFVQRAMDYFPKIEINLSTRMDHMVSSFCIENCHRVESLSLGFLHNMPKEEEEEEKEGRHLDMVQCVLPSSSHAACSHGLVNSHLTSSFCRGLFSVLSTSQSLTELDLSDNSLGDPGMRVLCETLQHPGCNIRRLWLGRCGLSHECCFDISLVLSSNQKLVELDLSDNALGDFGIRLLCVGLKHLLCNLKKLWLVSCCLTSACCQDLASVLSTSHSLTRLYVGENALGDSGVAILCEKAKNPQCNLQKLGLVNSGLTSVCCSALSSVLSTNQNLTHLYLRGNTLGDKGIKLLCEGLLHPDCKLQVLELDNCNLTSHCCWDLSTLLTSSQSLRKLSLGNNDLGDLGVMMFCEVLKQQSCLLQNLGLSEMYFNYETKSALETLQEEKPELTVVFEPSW

`CCN(CC)C(=O)N(CC)Cc1nc2c(N)nc3cc(-c4cc[nH]n4)ccc3c2[nH]1` [Compound 454, 1-{[4-amino-7-(1H-pyrazol-3-yl)-1H-imidazo[4,5-c]quinolin-2-yl]methyl}-1,3,3-triethylurea] showed a pEC50 of 6.13.
The compound `CCN(Cc1nc2c(N)nc3cc(-c4cc[nH]n4)ccc3c2[nH]1)C(=O)N1CCOCC1` [Compound 455, N-{[4-amino-7-(1H-pyrazol-3-yl)-1H-imidazo[4,5-c]quinolin-2-yl]methyl}-N-ethylmorpholine-4-carboxamide] gave a pEC50 of 5.70.
`CCN(Cc1nc2c(N)nc3cc(-c4cc[nH]n4)ccc3c2[nH]1)C(=O)NC(C)(C)C` [Compound 456, 1-{[4-amino-7-(1H-pyrazol-3-yl)-1H-imidazo[4,5-c]quinolin-2-yl]methyl}-3-tert-butyl-1-ethylurea] gave a pEC50 of 5.66.
`CCNC(=O)N(CC)Cc1nc2c(N)nc3cc(-c4cc[nH]n4)ccc3c2[nH]1` [Compound 457, 1-{[4-amino-7-(1H-pyrazol-3-yl)-1H-imidazo[4,5-c]quinolin-2-yl]methyl}-1,3-diethylurea] gave a pEC50 of 5.18.
The value for `CCN(Cc1nc2c(N)nc3cc(-c4cc[nH]n4)ccc3c2[nH]1)S(=O)(=O)N(C)C` [Compound 458, 2-{[(dimethylsulfamoyl)(ethyl)amino]methyl}-7-(1H-pyrazol-3-yl)-1H-imidazo[4,5-c]quinolin-4-amine] was 5.68; that for `CCN(Cc1nc2c(N)nc3cc(-c4cc[nH]n4)ccc3c2[nH]1)S(=O)(=O)C(C)C` [Compound 459, N-{[4-amino-7-(1H-pyrazol-3-yl)-1H-imidazo[4,5-c]quinolin-2-yl]methyl}-N-ethylpropane-2-sulfonamide] was 5.17; that for `CCCS(=O)(=O)N(CC)Cc1nc2c(N)nc3cc(-c4cc[nH]n4)ccc3c2[nH]1` [Compound 460, N-{[4-amino-7-(1H-pyrazol-3-yl)-1H-imidazo[4,5-c]quinolin-2-yl]methyl}-N-ethylpropane-1-sulfonamide] was 5.82.
`CCNCc1nc2c(N)nc3cc(-c4ccn[nH]4)ccc3c2n1CCO` [Compound 462, 2-[4-Amino-2-[(ethylamino)methyl]-7-(1H-pyrazol-5-yl)-1H-imidazo[4,5-c]quinolin-1-yl]ethan-1-ol] showed a pEC50 of 5.26.
The value for `CCn1c(CN2CCCC2=O)nc2c(N)nc3cc(-c4cccs4)ccc3c21` [Compound 463, 1-{[4-amino-1-ethyl-7-(thiophen-2-yl)-1H-imidazo[4,5-c]quinolin-2-yl]methyl}pyrrolidin-2-one] was 6.66; that for `CCNCc1nc2c(N)nc3cc(-c4ccn[nH]4)ccc3c2n1CC` [Compound 464, 1-ethyl-2-[(ethylamino)methyl]-7-(1H-pyrazol-5-yl)-1H-imidazo[4,5-c]quinolin-4-amine] was 6.62.
Under `CCn1c(CN2CCCC2=O)nc2c(N)nc3cc(-n4cccn4)ccc3c21` [Compound 465, 1-{[4-amino-1-ethyl-7-(1H-pyrazol-1-yl)-1H-imidazo[4,5-c]quinolin-2-yl]methyl}pyrrolidin-2-one] stands 6.00.
`CCn1c(CN2CCCC2=O)nc2c(N)nc3cc(-c4ccn[nH]4)ccc3c21` [Compound 466, 1-{[4-amino-1-ethyl-7-(1H-pyrazol-5-yl)-1H-imidazo[4,5-c]quinolin-2-yl]methyl}pyrrolidin-2-one] showed a pEC50 of 5.96.
`CCNCc1nc2c(N)nc3cc(-n4cccn4)ccc3c2n1CC` [Compound 467, 1-ethyl-2-((ethylamino)methyl)-7-(1H-pyrazol-1-yl)-1H-imidazo[4,5-c]quinolin-4-amine] gave a pEC50 of 5.92.
On to `CCNCc1nc2c(N)nc3cc(-c4cccs4)ccc3c2n1CC` [Compound 468, 1-ethyl-2-[(ethylamino)methyl]-7-(thiophen-2-yl)-1H-imidazo[4,5-c]quinolin-4-amine], for which the pEC50 was 5.68.
Consider `Nc1nc2cc(-c3cccs3)ccc2c2c1nc(CN1CCCC1=O)n2CCO` [Compound 469, 1-{[4-amino-1-(2-hydroxyethyl)-7-(thiophen-2-yl)-1H-imidazo[4,5-c]quinolin-2-yl]methyl}pyrrolidin-2-one], for which the pEC50 is 6.17.
`CCC(=O)N(CC)Cc1nc2c(N)nc3cc(-c4cccs4)ccc3c2n1CCO` [Compound 470, N-{[4-amino-1-(2-hydroxyethyl)-7-(thiophen-2-yl)-1H-imidazo[4,5-c]quinolin-2-yl]methyl}-N-ethylpropanamide] gave a pEC50 of 6.16.
Under `CCNCc1nc2c(N)nc3cc(-c4cccs4)ccc3c2n1CCO` [Compound 471, 2-{4-amino-2-[(ethylamino)methyl]-7-(thiophen-2-yl)-1H-imidazo[4,5-c]quinolin-1-yl}ethan-1-ol] stands 5.92; under `CCN(Cc1nc2c(N)nc3cc(-c4cccs4)ccc3c2n1CC)C(C)=O` [Compound 472, N-{[4-amino-1-ethyl-7-(thiophen-2-yl)-1H-imidazo[4,5-c]quinolin-2-yl]methyl}-N-ethylacetamide], 6.37.
Take `CCC(=O)N(CC)Cc1nc2c(N)nc3cc(-c4ccn[nH]4)ccc3c2n1CC` [Compound 473, N-{[4-amino-1-ethyl-7-(1H-pyrazol-5-yl)-1H-imidazo[4,5-c]quinolin-2-yl]methyl}-N-ethylpropanamide]: the pEC50 is 6.66.
Under `CCN(Cc1nc2c(N)nc3cc(-c4ccn[nH]4)ccc3c2n1CC)C(C)=O` [Compound 474, N-{[4-amino-1-ethyl-7-(1H-pyrazol-5-yl)-1H-imidazo[4,5-c]quinolin-2-yl]methyl}-N-ethylacetamide] stands 5.92.
In turn, `CCC(=O)N(CC)Cc1nc2c(N)nc3cc(-c4ccn[nH]4)ccc3c2n1CCO` [Compound 475, N-{[4-amino-1-(2-hydroxyethyl)-7-(1H-pyrazol-5-yl)-1H-imidazo[4,5-c]quinolin-2-yl]methyl}-N-ethylpropanamide] had a pEC50 of 4.64.
The compound `CCN(Cc1nc2c(N)nc3cc(-n4cccn4)ccc3c2n1CCO)C(C)=O` [Compound 476, N-{[4-amino-1-(2-hydroxyethyl)-7-(1H-pyrazol-1-yl)-1H-imidazo[4,5-c]quinolin-2-yl]methyl}-N-ethylacetamide] gave a negative-log EC50 (pEC50) of 5.21.
For `CCNCc1nc2c(N)nc3cc(-n4cccn4)ccc3c2n1CCO` [Compound 477, 2-[4-amino-2-[(ethylamino)methyl]-7-(1H-pyrazol-1-yl)-1H-imidazo[4,5-c]quinolin-l-yl]ethan-1-ol], the pEC50 is 5.20.
The compound `CCC(=O)N(CC)Cc1nc2c(N)nc3cc(-n4cccn4)ccc3c2n1CCO` [Compound 478, N-{[4-amino-1-(2-hydroxyethyl)-7-(1H-pyrazol-1-yl)-1H-imidazo[4,5-c]quinolin-2-yl]methyl}-N-ethylpropanamide] gave a pEC50 of 5.43.
The compound `CCN(Cc1nc2c(N)nc3cc(-n4cccn4)ccc3c2n1CC)C(C)=O` [Compound 479, N-{[4-amino-1-ethyl-7-(1H-pyrazol-1-yl)-1H-imidazo[4,5-c]quinolin-2-yl]methyl}-N-ethylacetamide] showed a pEC50 of 6.17.
`CCC(=O)N(CC)Cc1nc2c(N)nc3cc(-c4cccs4)ccc3c2n1CC` [Compound 480, N-{[4-amino-1-ethyl-7-(thiophen-2-yl)-1H-imidazo[4,5-c]quinolin-2-yl]methyl}-N-ethylpropanamide] gave a negative-log EC50 (pEC50) of 5.72.
`CCC(=O)N(CC)Cc1nc2c(N)nc3cc(-n4cccn4)ccc3c2n1CC` [Compound 481, N-{[4-amino-1-ethyl-7-(1H-pyrazol-1-yl)-1H-imidazo[4,5-c]quinolin-2-yl]methyl}-N-ethylpropanamide] showed a pEC50 of 6.20.
As for `CCN(Cc1nc2c(N)nc3cc(-c4cccs4)ccc3c2n1CCO)C(C)=O` [Compound 482, N-{[4-amino-1-(2-hydroxyethyl)-7-(thiophen-2-yl)-1H-imidazo[4,5-c]quinolin-2-yl]methyl}-N-ethylacetamide], the pEC50 is 6.37.

Values taken from patent US12351580B2, “NLRP3 modulators” (Innate Tumor Immunity, Inc., priority 2017, dated 2025).
